ChEMBL document CHEMBL1138383, “2-Arylidenedihydroindole-3-ones: design, synthesis, and biological activity on bladder carcinoma cell lines” (2007)

Tests used:
J82 [1] = assay: Effect on viability of J82 cells with FGFR3 K650E mutation at 10 uM after 72 hrs; format: functional, Homo sapiens
[2] = Effect on viability of DAG1 cells with FGFR3 S249C mutation at 10 uM after 72 hrs; format: functional, Homo sapiens
RT-112 [3] = assay: Effect on viability of RT112 cells overexpressing wild-type FGFR3 at 10 uM after 72 hrs; format: functional, Homo sapiens
RT-112 [4] = assay: Decrease in p-Pyk2 antigen expression level in RT112 cells overexpressing wild-type FGFR3 at 10 uM after 6 hrs by flow cytometry relative to control; format: functional, Homo sapiens
[5] = Induction of apoptosis in DAG1 cells with FGFR3 S249C mutation at 10 uM after 48 hrs by flow cytometry; format: functional, Homo sapiens
RT-112 [6] = assay: Induction of apoptosis in RT112 cells overexpressing wild-type FGFR3 at 10 uM after 48 hrs by flow cytometry; format: functional, Homo sapiens
[7] = Decrease in p-Pyk2 antigen expression level in DAG1 cells with FGFR3 S249C mutation at 10 uM after 6 hrs by flow cytometry relative to control; format: functional, cell-based; settings: Homo sapiens
RT-112 [8] = assay: Decrease in p-Stat5 antigen expression level in RT112 cells overexpressing wild-type FGFR3 at 10 uM after 6 hrs by flow cytometry relative to control; format: functional, Homo sapiens
J82 [9] = assay: Induction of apoptosis in J82 cells with FGFR3 K650E mutation at 10 uM after 48 hrs by flow cytometry; format: functional, Homo sapiens
[10] = Decrease in p-Stat5 antigen expression level in DAG1 cells with FGFR3 S249C mutation at 10 uM after 6 hrs by flow cytometry relative to control; format: functional, cell-based; settings: Homo sapiens

Row | SMILES | Activity (J82 [1]) [%] | Activity [2] [%] | Activity (RT-112 [3]) [%] | Activity (RT-112 [4]) | Activity [5] [%] | Activity (RT-112 [6]) [%] | Activity [7] | Activity (RT-112 [8]) | Activity (J82 [9]) [%] | Activity [10]
1 | CCc1ccc(/C=C2\Nc3cc(OC)cc(OC)c3C2=O)cc1 | 99 | 98 | 97 | – | – | – | – | – | – | –
2 | COc1cc2c(c(OC)c1)C(=O)/C(=C/c1ncc[nH]1)N2 | 89 | 90 | 92 | – | – | – | – | – | – | –
3 | COc1cc2c(c(OC)c1)C(=O)/C(=C/c1ccccc1F)N2 | 97 | 58 | 48 | 1.3 | 86 | 20 | 2 | 2.5 | 3 | 9.5
4 | COc1cc2c(c(OC)c1)C(=O)/C(=C/c1ccc(Cl)cc1)N2 | 94 | 99 | 93 | – | – | – | – | – | – | –
5 | COc1cc2c(c(OC)c1)C(=O)/C(=C/c1[nH]cnc1C)N2 | 90 | 89 | 92 | – | – | – | – | – | – | –
6 | COc1cc2c(c(OC)c1)C(=O)/C(=C/c1c(F)cccc1Cl)N2 | 95 | 91 | 93 | – | – | – | – | – | – | –
